Laboratory results published in patent publication US20240208972A1, “LRRK2 INHIBITORS AND USES THEREOF” (NEURON23, INC., priority 2022, published 2024).

Key:
[1] = target: T1, wt human LRRK2, catalytic site (Homo sapiens, UniProt Q5S007); assay: TR-FRET LanthaScreen Tb Kinase Activity Assay, LRRK2 kinase inhibition; format: biochemical; details: 2 nM wt human LRRK2, 400 nM peptide, 38 μM ATP
T1 construct: wt human LRRK2, catalytic site, catalytic site (ThermoFisher/USA); purchased ThermoFisher
Method in brief: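 TR-FRET LanthaScreen format: 2 nM wt human LRRK2 catalytic domain with 400 nM fluorescein-ERM (LRRKtide) and 38 μM ATP in Kinase Buffer A, after 15 min compound preincubation. Reaction 120 min at RT, then EDTA plus Tb-anti-pLRRKtide antibody for 60 min; emission ratios analysed per kit protocol.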

[2] = Brain penetration (Kp,uu) in CD-1 mice, with plasma and brain tissue binding by equilibrium dialysis; format: in vivo; details: mouse, brain and plasma (unbound), male CD-1 mice, single IV bolus 1 mg/kg
Experimental: The compounds disclosed herein were tested on CD-1 mice for brain penetration (Kp, uu) according to the following procedures.
Nine male CD-1 mice were administered TEST COMPOUND by single intravenous bolus administration at 1 mg/kg. The vehicle used for IV study was 5% DMSO, 5% solutol, 20% PEG300 and 70% water. The detailed dosing and sampling regimens are described in the following tables.
1.0 mg of test compound was accurately weighed into a glass vial, and slowly added with 104 μL of DMSO and vortexed for 1 min. Then 104 μL of solutol was added and vortexed for 1 min. Then 415 μL of PEG300 was added and vortexed for 1 min. Then 1000 μL of water was added and vortexed for 1 min. Finally, 451 μL of water was added and vortexed for 1 min to get a clear solution.
The body weights were in the range from 28.81 to 31.25 g for males on the first dosing day. All animals received a single intravenous bolus administration of TEST COMPOUND from the tail vein.
Each blood collection (about 0.06 mL per time point) was performed from saphenous vein of each animal into pre-chilled commercial K2-EDTA tubes as anti-coagulant and placed on wet ice until centrifugation.
Plasma samples were then prepared by centrifuging the blood samples at approximately 4° C., 3200×g for 10 minutes. All plasma samples were then quickly frozen over dry ice and kept at −60° C. or lower until LC-MS/MS analysis.
Brain tissue was homogenized using homogenizing buffer (15 mM PBS (pH7.4): MeOH=2:1) at the ratio of 1:9 (1 g tissue with 9 mL buffer, the dilution ratio is 10). The tissue homogenate was kept at −60° C. or lower until LC-MS/MS analysis.
The concentrations of TEST COMPOUND in plasma and brain were determined by using an LC-MS/MS method.
The plasma and brain concentration of TEST COMPOUND in study animals was subjected to a non-compartmental pharmacokinetic analysis by using the Phoenix WinNonlin software program (version 6.3 or above, Pharsight). The linear/log trapezoidal rule was applied in obtaining the PK parameters.
Individual plasma and brain concentration values that were below the lower limit of quantitation (LLOQ) were excluded from the PK parameter calculation. The nominal dose levels and nominal sampling times were used in the calculation of all pharmacokinetic parameters.
Mouse Kp, uu=(% free in mouse brain*concentration in mouse brain)/(% free in mouse plasma*concentration in mouse plasma)
The dialysis apparatus was assembled according to the manufacturer's instruction. Each Cell was filled with 120 μL of spiked plasma sample and dialyzed against equal volume of dialysis buffer (PBS). The assay was performed in duplicate. The dialysis plates were sealed and incubated in an incubator at 37° C. with 5% CO2 and rotated at 100 rpm for 6 hours. At the end of incubation, the seals were removed and 50 μL of samples from both buffer and plasma chambers were transferred to a 96-well plate.
All calculations were carried out using Microsoft Excel. The concentrations of test compound and control compound in the buffer and plasma chambers were determined from peak area ratios (PAR) of analyte to internal standard. Protein binding (% unbound and % bound) and recovery (% recovery) of test and control compounds was calculated as follows:
• 1. Thawing of the frozen brain (stored at −80° C.) • Frozen brain tissue was thawed at room temperature in a bath. Only brain tissue was used that was thawed no more than once. • 2. Preparation of brain tissue homogenate • Brain tissue homogenate was prepared by diluting one quantity (g) of the whole brain tissue with three volumes (mL) of buffer (PBS, pH 7.4) and homogenizing the mixture using a tissue homogenizer. Brain tissue homogenate was frozen at −80° C. for later use/comparison. • 3. Preparation of working solutions • The working solutions of test compound and the control compound propranolol were prepared in dimethyl sulfoxide (DMSO) at the concentration of 200 μM. […]

[3] = tested on: Caco-2 cells; assay: Caco-2 bidirectional permeability; format: in vitro ADME; details: for Caco-2 A2B (10^−6 cm/s): A to B; for Caco-2 A2B (10^−6 cm/s) / Caco-2 B2A (10^−6 cm/s): HBSS pH 7.4, 2 hours; for Caco-2 B2A (10^−6 cm/s): B to A; for Caco-2 ER: Efflux Ratio=Papp (BA)/Papp (AB)
Method in brief: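 Caco-2 monolayers grown 21–28 days on PET inserts were run in duplicate in HBSS with 10 mM HEPES, pH 7.4. Compound was tested in both directions at […] for 2 h at 37 °C and quantified by LC-MS/MS. Papp, % recovery and efflux ratio (B-A/A-B) were calculated, with lucifer yellow checking monolayer integrity.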

[4] = Human liver microsomal clearance (hLM Cl); format: in vitro ADME; details: cells marked *

T1 sequence (Q5S007 1879-2138 limits assumed): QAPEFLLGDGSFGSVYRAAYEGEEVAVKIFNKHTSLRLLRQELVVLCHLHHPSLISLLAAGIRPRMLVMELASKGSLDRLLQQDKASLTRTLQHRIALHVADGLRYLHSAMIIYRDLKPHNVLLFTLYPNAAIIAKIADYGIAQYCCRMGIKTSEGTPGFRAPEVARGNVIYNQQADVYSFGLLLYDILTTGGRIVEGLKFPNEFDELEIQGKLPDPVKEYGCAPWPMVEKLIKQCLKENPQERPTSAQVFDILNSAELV

SMILES | IC50 [1] [nM] | Kp uu [2] | Caco-2 A2B (10^−6 cm/s) [3] | Caco-2 B2A (10^−6 cm/s) [3] | Caco-2 ER [3] | hLM Cl (mL/min/kg) [4]
Cc1n[nH]c2c1N=C(c1c(F)cccc1F)Nc1c-2cc(N2CCN(C)[C@@H](C(F)(F)F)C2)nc1C (single isomer, unassigned) [Example 37] | < 2 | 0.2 to 0.4 | H (H (High permeability)”: A2B (B2A)>5) | H (H (High permeability)”: A2B (B2A)>5) | N (N (Non-substrate)”: ER<2.5) | I* (I (Intermediate C1)”: 6.3 mL/min/kg≤Hep Cl≤14.7 mL/min/kg)
Cc1n[nH]c2c1N=C(c1c(F)cccc1F)Nc1c-2cc(N2CCC[C@@]3(CCOC3)C2)nc1C (single isomer, unassigned) [Example 49] | < 2 | 0.2 to 0.4 | H (H (High permeability)”: A2B (B2A)>5) | H (H (High permeability)”: A2B (B2A)>5) | N (N (Non-substrate)”: ER<2.5) | I* (I (Intermediate C1)”: 6.3 mL/min/kg≤Hep Cl≤14.7 mL/min/kg)
Cc1n[nH]c2c1N=C(c1c(F)cccc1F)Nc1ccc(N3CCN(C)C(C(F)(F)F)C3)cc1-2 (stereo not drawn) [Example 6, 5-(2,6-difluorophenyl)-3-methyl-9-[4-methyl-3-(trifluoromethyl)piperazin-1-yl]-1,6-dihydropyrazolo[4,3-d][1,3]benzodiazepine] | < 2 | 0.2 to 0.4 | H (H (High permeability)”: A2B (B2A)>5) | H (H (High permeability)”: A2B (B2A)>5) | N (N (Non-substrate)”: ER<2.5) | L* (L (Low C1)”: Hep Cl<6.3 mL/min/kg)
[2H]C([2H])([2H])c1n[nH]c2c1N=C(c1c(F)cccc1F)Nc1ccc(N3CCO[C@H](C)C3)cc1-2 [Example 11, (2R)-4-[5-(2,6-difluorophenyl)-3-(trideuteriomethyl)-1,6-dihydropyrazolo[4,3-d][1,3]benzodiazepin-9-yl]-2-methyl-morpholine] | 2 to 100 | 0.2 to 0.4 | H (H (High permeability)”: A2B (B2A)>5) | H (H (High permeability)”: A2B (B2A)>5) | N (N (Non-substrate)”: ER<2.5) | L* (L (Low C1)”: Hep Cl<6.3 mL/min/kg)
Cc1n[nH]c2c1N=C(c1c(F)cccc1F)Nc1c-2cc(N2CCN(CCF)[C@@H](C)C2)nc1C [Example 21, (S)-5-(2,6-difluorophenyl)-9-(4-(2-fluoroethyl)-3-methylpiperazin-1-yl)-3,7-dimethyl-1,6-dihydropyrazolo[4,3-d]pyrido[4,3-f][1,3]diazepine] | < 2 | 0.2 to 0.4 | H (H (High permeability)”: A2B (B2A)>5) | H (H (High permeability)”: A2B (B2A)>5) | N (N (Non-substrate)”: ER<2.5) | L* (L (Low C1)”: Hep Cl<6.3 mL/min/kg)
Cc1n[nH]c2c1N=C(c1c(F)cccc1F)Nc1c-2cc(C2CCOCC2)nc1C [Example 38, 8-(2,6-difluorophenyl)-5,11-dimethyl-13-tetrahydropyran-4-yl-3,4,7,9,12-pentazatricyclo[8.4.0.02,6]tetradeca-1(10),2(6),4,7,11,13-hexaene] | < 2 |  | H (H (High permeability)”: A2B (B2A)>5) | H (H (High permeability)”: A2B (B2A)>5) | N (N (Non-substrate)”: ER<2.5) | I* (I (Intermediate C1)”: 6.3 mL/min/kg≤Hep Cl≤14.7 mL/min/kg)
Cc1n[nH]c2c1N=C(c1c(F)cccc1F)Nc1c-2cc(N2CC3CC(C2)O3)nc1C [Example 41, 3-(5-(2,6-difluorophenyl)-3,7-dimethyl-1,6-dihydropyrazolo[4,3-d]pyrido[4,3-f][1,3]diazepin-9-yl)-6-oxa-3-azabicyclo[3.1.1]heptane] | < 2 |  | H (H (High permeability)”: A2B (B2A)>5) | H (H (High permeability)”: A2B (B2A)>5) | N (N (Non-substrate)”: ER<2.5) | I* (I (Intermediate C1)”: 6.3 mL/min/kg≤Hep Cl≤14.7 mL/min/kg)
Cc1n[nH]c2c1N=C(c1c(F)cccc1F)Nc1c-2cc(N2CCO[C@@H](COC(F)(F)F)C2)nc1C [Example 48, (R)-4-(5-(2,6-difluorophenyl)-3,7-dimethyl-1,6-dihydropyrazolo[4,3-d]pyrido[4,3-f][1,3]diazepin-9-yl)-2-((trifluoromethoxy)methyl)morpholine] | < 2 |  | M (M (Moderate permeability)”: 1≤A2B (B2A)≤5) | M (M (Moderate permeability)”: 1≤A2B (B2A)≤5) | N (N (Non-substrate)”: ER<2.5) | I* (I (Intermediate C1)”: 6.3 mL/min/kg≤Hep Cl≤14.7 mL/min/kg)
